Test results: patent US11299782B2, “Methods for predicting anti-cancer response” (Children's Medical Center Corporation, priority 2012, dated 2022)

Test system: operable TNBC
Assay: Cisplatin-1 clinical trial: preoperative cisplatin monotherapy, pathologic response
Format: in vivo, human
Procedure: We performed a clinical trial, Cisplatin-1, in which 28 patients with operable TNBC were treated preoperatively with cisplatin monotherapy. […] A second trial, Cisplatin-2, accrued 51 patients with TNBC who received the same preoperative cisplatin regimen as Cisplatin-1, but in combination with the angiogenesis inhibitor bevacizumab (Ryan, P. D., et al. Neoadjuvant cisplatin and bevacizumab in triple negative breast cancer (TNBC): Safety and Efficacy. J Clin Oncol 2009; 27: 551). Response rate in Cisplatin-2 were similar to Cisplatin-1. […] In Cisplatin-2, 8 patients carried a germline BRCA1 or BRCA2 mutation, of which 4 patients achieved a pCR or near pCR to the cisplatin-bevacizumab regimen. In both trials, all patients had research sequencing to determine their germline BRCA1 and BRCA2 status. Thus in some aspects of all the embodiments of the invention, the BRCA1 and BRCA2 status can be determined either simultaneously with or before the allelic imbalance or telomeric allelic imbalance analysis. In some aspects, only patients without BRCA1 or BRCA2 mutations are subjected to the NAI (number of allelic imbalance) or NtAI (number of telomeric allelic imbalance) assays or analyses. Cisplatin was used as an example of platinum comprising cancer therapies. A total of 28 mainly sporadic TNBC patients were treated with cisplatin monotherapy in the neo-adjuvant setting (Silver et al. (2010) J. Clin. Oncol. 28, 1145-1153). Cisplatin response was measured using the semiquantitative Miller-Payne score by pathological assessment of surgical samples after therapy (Ogston et al. (2003) Breast 12, 320-327). […] Therapeutic response was measured using the semiquantitative Miller-Payne grading system, which estimates the percent reduction in invasive tumor volume and cellularity based on pathological assessment of surgical samples after therapy (Ogston, K. N., et al., A new histological grading system to assess response of breastcancers to primary chemotherapy: prognostic significance and survival. Breast 2003; 12: 320-327). […]

In the case of N.N.[Cl][Pt][Cl] [cisplatin], the “patients with greater than 90% tumor reduction” value (10 of 28 patients, preoperative cisplatin monotherapy) is reported as 36%, the “patients progressed on therapy” value (of 28 patients) is reported as 4 and the “pathologic complete response (pCR), number of women” value (of 28 patients, 2 of them had BRCA1-associated cancers) is reported as 6.
